Experiment [1] relates to E-selectin-IgG fusion protein. Briefly: Inhibition of HL60 cell adhesion to recombinant E-selectin-IgG fusion protein. The experiment is classed as cell-based, human. The protocol: (§1) These recombinant proteins contain the signal sequence, the lectin-like domain, the EGF (epidermal growth factor) repeat domain and six (E-selectin) and two (P-selectin) of the CR-like (complement regulatory) domains. […] Adhesion of labelled HL60 tumor cells was quantitatively measured in a cytofluoro-meter. The specific cell binding in the presence of inhibitors (I) was calculated compared with nonspecific binding to the CD4-IgG fusion protein. […] Genetic constructs for expression of extracellular portions of the human selectins E and P, joined to human immunoglobulin heavy chain hinge, CH2 and CH3 regions were obtained from B. Seed, Massachusetts General Hospital, Boston, U.S.A. […] CD4-IgG served as a negative control. Recombinant proteins were expressed as soluble proteins after DEAE/dextran facilitated plasmid DNA trans-fection into COS cells according to standard procedures. […] After washing with PBS, plates were blocked for 0.5 h with 150 μl/well of 1% BSA in PBS. […] After one PBS wash, 40 μl/well binding buffer (50 mM Hepes, pH 7.5, 100 mM NaCl, 100 μM MgCl2. 100 μM MnCl2, 100 μM CaCl2, 1 mg/ml BSA) were added together with test compounds or antibodies (see below). Parallel to the preparation of the plates, HL60 cells, grown in DMEM medium with 20% FCS, were washed two times with PBS before incubation for 20 min in Fc-receptor blocking buffer at RT. […] The amount of bound cells was quantitated in a cytofluorometer (CytoFluor 2300, Millipore, Bedford, U.S.A.). Specific cell binding was calculated by subtraction of the signals in wells coated with CD4-IgG (nonspecific binding) from the signals in wells coated with selectin-IgG. […] IC50 values were determined according to the four parameter logistics model. Each IC50 determination was repeated on another day at least once.

For experiment [2], the target named is T1, P-selectin-IgG fusion protein (Homo sapiens, UniProt P16109).
T1 construct: the lectin-like domain, the EGF repeat domain and six (E-selectin) and two (P-selectin) of the complement regulatory-like domains; made in house; host or cells: COS cells (DEAE/dextran plasmid transfection; culture supernatant; genetic constructs from B. Seed, Massachusetts General Hospital)
The experiment is described as follows: Inhibition of HL60 cell adhesion to recombinant P-selectin-IgG fusion protein. The format is cell-based. As to conditions: for pIC50: concentration to block adhesion of 50% of HL60 cells compared with negative control. As for the experimental part:
as §1

For experiment [3], the system named is E- and P-selectins. The experiment is described as follows: Selectin cell adhesion assays, E- and P-selectin taken together (statements in words). The experiment is classed as cell-based, human. The conditions noted are these: removal of the acetamido or acetyl group, compared with II-1. The source says: Primary assays for investigation of the action of compounds (I) on cell adhesion to recombinant soluble selectin fusion proteins:
The preparation of soluble E- and P-selectin-IgG fusion proteins, composed of the extracellular portions of human selectins E and P and the human immunoglobulin (IgG) heavy chain hinge, CH2 and CH3 regions, has been described in Cell 1991, 67, 35. These recombinant proteins contain the signal sequence, the lectin-like domain, the EGF (epidermal growth factor) repeat domain and six (E-selectin) and two (P-selectin) of the CR-like (complement regulatory) domains. […] Adhesion of labelled HL60 tumor cells was quantitatively measured in a cytofluoro-meter. The specific cell binding in the presence of inhibitors (I) was calculated compared with nonspecific binding to the CD4-IgG fusion protein.
The activity of compounds (I), (II) and (III) was measured in adhesion assays as the inhibition of the binding of promyelocytic leukemia HL60 cells (ATCC CRL 1964) to recombinant solid phase bound selectin-fusion proteins. […] Recombinant proteins were expressed as soluble proteins after DEAE/dextran facilitated plasmid DNA trans-fection into COS cells according to standard procedures. […] The amount of bound cells was quantitated in a cytofluorometer (CytoFluor 2300, Millipore, Bedford, U.S.A.). […]

The subject of experiment [4] is E-selectin-Ig. As to conditions: cited from earlier work.
[5] abbreviates: concentration to block adhesion of 50% of HL60 cells compared with negative control; read-out: E-selectin IC50.

Structures are written as SMILES. pIC50: −log10 of the molar value. Like-named read-outs stand apart in the source and are kept apart here.

T1 sequence (P16109 with tags, fused parts or gaps limits assumed): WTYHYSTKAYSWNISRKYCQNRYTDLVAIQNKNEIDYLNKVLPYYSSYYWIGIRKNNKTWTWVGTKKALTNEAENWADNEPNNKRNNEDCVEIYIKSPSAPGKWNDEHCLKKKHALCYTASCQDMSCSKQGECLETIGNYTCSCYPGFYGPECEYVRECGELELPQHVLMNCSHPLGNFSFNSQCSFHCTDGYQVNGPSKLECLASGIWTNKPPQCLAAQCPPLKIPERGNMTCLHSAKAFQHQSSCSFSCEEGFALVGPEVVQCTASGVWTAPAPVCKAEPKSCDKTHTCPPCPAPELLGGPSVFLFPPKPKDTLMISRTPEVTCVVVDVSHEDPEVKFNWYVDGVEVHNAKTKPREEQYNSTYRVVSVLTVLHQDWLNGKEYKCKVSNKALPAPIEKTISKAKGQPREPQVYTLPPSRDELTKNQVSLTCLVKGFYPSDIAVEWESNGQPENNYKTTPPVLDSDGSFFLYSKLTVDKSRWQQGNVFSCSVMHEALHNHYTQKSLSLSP

Regarding `CC(=O)NC1C(OCCCCCCN)OC(CO)C(OC2OC(CO)C(O)C(OC3(C(=O)O)CC(O)CC(C(O)C(O)CO)O3)C2O)C1OC1OC(C)C(O)C(O)C1O` (centres unmarked) [III-1], the pIC50 in experiment [1] (setting [5]) and in experiment [2] was 3.15 throughout. In addition, the “inhibitory potency relative to II-1” value in experiment [3] is “only slightly improved”.
As to `CC(=O)NC1C(O)CC(OC2C(O)C(CO)OC(OC3C(CO)OC(O)C(N)C3OC3OC(C)C(O)C(O)C3O)C2O)(C(=O)O)OC1C(O)C(O)CO` (centres unmarked) [sLe^X (GlcNH2)], the “enhanced inhibitory potency compared to sLe^X (fold)” value in experiment [4] (cell-free ELISA, E-selectin-Ig competitive binding) was 5 fold. In addition, the pIC50 in experiment [4] (cell-free system, read-out: IC50, E-selectin-Ig competitive binding) is 4.11.
For the molecule `CC(=O)NC1C(OCCCCCCN)OC(CO)C(OC2OC(CO)C(O)C(OC3(C(=O)O)CC(O)C(N)C(C(O)C(O)CO)O3)C2O)C1OC1OC(C)C(O)C(O)C1O` (centres unmarked) [III-2], the pIC50 was 3.05 in experiment [1] (setting [5]) and 3.00 in experiment [2]. For the same molecule, the “inhibitory potency relative to II-1” value in experiment [3] is recorded as “only slightly improved”.
On to `CC1OC(OC2C(N)C(OCCCCCCN)OC(CO)C2OC2OC(CO)C(O)C(OC3(C(=O)O)CC(O)C(N)C(C(O)C(O)CO)O3)C2O)C(O)C(O)C1O` [Compound I-1, 2-Amino-4-O-[3-O-[5-amino-3,5-dideoxy-D-glycero-α-D-galactononulopyranosyl]-β-D-galactopyranosyl]-1-[6-aminohexyl]-2-deoxy-3-O-[α-L-fucopyranosyl]-β-D-glycopyranose], for which the “improvement of the E-selectin IC50 over II-1” value in experiment [1] (I-1 over reference compound II-1) was “significant improvement”. Also, the pIC50 in experiment [1] (read-out: E-selectin IC50; concentration to block adhesion of 50% of HL60 cells compared with negative control) is 3.57; in experiment [2], 3.80. Also, the “enhancement of binding affinity to P-selectin (factor)” value in experiment [2] (fully deacetylated I-1 compared with II-1) came to 12.5.
`CC(=O)NC1C(O)CC(OC2C(O)C(CO)OC(OC3C(CO)OC(OCCCCCCN)C(NC(C)=O)C3OC3OC(C)C(O)C(O)C3O)C2O)(C(=O)O)OC1C(O)C(O)CO` (centres unmarked) [II-1]: the figures for the pIC50 in experiment [1] (setting [5]) and in experiment [2] were 3.00 and 2.70, respectively.

By pIC50 is commonly meant the IC50 on a negative log10 scale, so that one unit is a factor of ten.

(Values after patent publication US6110897A, “Antiinflammatory cell adhesion inhibitors” (Glycorex AB, priority 1997, dated 2000).)
